Tested on: Borrelia burgdorferi strain B31
Test: Antibiotic bait diet fed no-choice for seven days to mice infected with Lyme disease spirochete; ear punch biopsy culture and dark field microscopy
Type: in vivo, laboratory mice (Swiss-Webster)
Settings: ear punch biopsy culture, dark field microscopy
Method: The diet compositions described in Examples 1-3 were fed separately on a no-choice basis to separate groups of laboratory mice (Swiss-Webster) infected with the Lyme disease spirochete Borrelia burgdorferi. […]. The mice had all been previously infected with B. burgdorferi strain B31 by subcutaneous injection followed by a minimum 21-day incubation period. To confirm that the mice were positive for the spirochete, a modified ear punch biopsy was performed (Sinsky and Piesman, 1989, J. of Clin. Micro. 27:1723-1727, CDC 1997) on each mouse and the biopsy incubated in a modified BSK-H media for 7 days and viewed under dark field microscopy. The prepared diets were fed to individually housed mice on a no-choice basis and water was offered ad libitum. Consumption was recorded each day and additional feed was added. Diet was presented to the mice for seven consecutive days. On the day following the last day feed was offered, mice were anesthetized with Halothane and ear punch biopsy was performed. The biopsies were incubated in modified BSK-H media for seven days at 34±1° C. Dark field microscopy was then performed on an American Optics 1031 microscope with an American Optics dark field 1096 condenser to determine the presence of spirochetes. Cultures were considered positive if spirochete growth occurred within five weeks of inoculation (Wilske and Preac-Mursic, Aspects of Lyme Borreliosis, Springer-Verlag, New York 1993), viewing the cultures at seven-day increments. A slide was considered negative if no spirochetes were found after searching 100 fields at 400× (Ginsberg and Ewing, J. of Med. Entomology, 26: 183-189, 1989).

[1] = Treatment level 1, chloramphenicol 500 μg/g bait
[2] = Treatment level 2, chloramphenicol 1000 μg/g bait
[3] = Treatment level 3, thiamphenicol 1000 μg/g bait

NUMBER OF MICE TESTING NEGATIVE FOR SPIROCHETE [1]	PERCENTAGE OF MICE TESTING NEGATIVE FOR SPIROCHETE [1]	NUMBER OF MICE TESTING NEGATIVE FOR SPIROCHETE [2]	PERCENTAGE OF MICE TESTING NEGATIVE FOR SPIROCHETE [2]	NUMBER OF MICE TESTING NEGATIVE FOR SPIROCHETE [3]	PERCENTAGE OF MICE TESTING NEGATIVE FOR SPIROCHETE [3]	SMILES
10/10	(100%)	10/10	(100%)			O=C(N[C@H](CO)[C@H](O)c1ccc([N+](=O)[O-])cc1)C(Cl)Cl [CHLORAMPHENICOL, chloramphenicol]
				10/10	(100%)	CS(=O)(=O)c1ccc([C@@H](O)[C@@H](CO)NC(=O)C(Cl)Cl)cc1 [THIAMPHENICOL, thiamphenicol]

From US20030036564A1, “Control of lyme disease spirochete” (priority 2001, published 2003)
